Test results from patent US20060216238A1, “Compositions and methods for targeting or imaging a tissue in a vertebrate subject” (priority 2005, published 2006).

Tests used:
[1] = RT-PCR detection of CPMV RNA in tissues of mice inoculated i.v.; conditions: for CPMV RNA detected in bone marrow, mice positive/examined / CPMV RNA detected in brain, mice positive/examined / CPMV RNA detected in duodenum, mice positive/examined / CPMV RNA detected in ileum, mice positive/examined / CPMV RNA detected in jejunum, mice positive/examined / CPMV RNA detected in kidney, mice positive/examined / CPMV RNA detected in liver, mice positive/examined / CPMV RNA detected in lung, mice positive/examined / CPMV RNA detected in spleen, mice positive/examined / CPMV RNA detected in stomach, mice positive/examined: i.v.
LCMV = conditions: mouse, in vivo
[2] = biological target: folate receptor (FR) on KB and HeLa cells (Homo sapiens, UniProt P15328); conditions: 4° C., both cell lines
cowpea plants = assay: Recovery of virus particles from mouse tissues, infectivity to cowpea; set-up: species or system Vigna unguiculata
Experimental: Recovery of virus particles from mouse tissues. Four mice were orally inoculated with 150 μg/mouse of CPMV and 24 hours later, the mice were euthanized and the liver, spleen, and kidney tissues were extracted and pooled. Following homogenization of pooled tissue samples in PBS, the homogenates were centrifuged at 10,000 g for 10 minutes at 4° C., and the cleared tissue supernatants were removed to flat-bottom 50-ml centrifuge tubes, each containing a magnetic flea. Polyethylene glycol 8000 was added to each supernatant to a final concentration of 8% and the mixture was stirred for 30 minutes at 4° C. to precipitate any virus present. The resulting cloudy mixture was centrifuged at 6,000 rpm in a Sorvall RC5C centrifuge for 15 minutes and the pellet was resuspended in 50-500 μl of 0.1 M phosphate buffer (pH 7.0), depending on pellet size. For each tissue homogenate a 7-day-old cowpea plant was dusted with carborundum and the resuspended pellet from each tissue was rubbed onto a single primary leaf. Five to seven days later, the primary and secondary leaves were harvested and a circle of tissue weighing 70 mg was excised from each leaf. RNA was extracted using a Qiagen RNeasy Plant Mini Kit (Qiagen Research, Maryland, USA) and RT-PCR was conducted as described above. PCR products were electrophoresed on a 2% Seakem LE agarose gel. The PCR products were purified from the gel using a PCR purification kit (Qiagen) and sequenced (Retrogen) to confirm that they were CPMV specific. Southern hybridization of the products with a CPMV-specific probe was also performed using ^32P end-labeled oligonucleotides (Amersham Biosciences). PCR products were transfered to Hybond-N+ membrane (Amersham Biosciences) using standard techniques. Hybridization conditions were 3 hours at 55° C. and wash conditions were in 6×SSC/0.5% SDS and were performed twice for five minutes at room temperature and twice for 5 minutes at 50° C.

[3] = 1 g infected leaves, day 1 post ingestion

Chain of folate receptor (FR) on KB and HeLa cells (P15328 25-234): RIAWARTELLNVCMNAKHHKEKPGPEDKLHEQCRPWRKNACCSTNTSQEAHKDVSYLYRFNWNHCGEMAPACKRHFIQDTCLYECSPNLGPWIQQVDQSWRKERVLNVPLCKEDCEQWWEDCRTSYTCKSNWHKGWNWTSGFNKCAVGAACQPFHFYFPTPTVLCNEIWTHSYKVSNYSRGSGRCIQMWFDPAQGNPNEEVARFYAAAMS

For cowpea mosaic virus [CPMV], the “CPMV RNA in any tissues examined” value ([1]; day 5 or day 7 post-inoculation) was “not detected”, the “CPMV RNA detected in bone marrow, mice positive/examined” value ([1]; D1, Non-perfused) was 3/3 and the “CPMV RNA detected in brain, mice positive/examined” value ([1]; D1, Non-perfused) was 3/3. The “CPMV RNA detected in duodenum, mice positive/examined” value ([1]; D1, Non-perfused) was 3/3, the “CPMV RNA detected in ileum, mice positive/examined” value ([1]; D1, Non-perfused) was 3/3 and the “CPMV RNA detected in jejunum, mice positive/examined” value ([1]; D1, Non-perfused) was 3/3. For the same substance, the “CPMV RNA detected in kidney, mice positive/examined” value ([1]; D1, Non-perfused) was 3/3, the “CPMV RNA detected in liver, mice positive/examined” value ([1]; D1, Non-perfused) was 2/3 and the “CPMV RNA detected in lung, mice positive/examined” value ([1]; D1, Non-perfused) was 3/3. For the same substance, the “CPMV RNA detected in spleen, mice positive/examined” value ([1]; D1, Non-perfused) was 3/3, the “CPMV RNA detected in stomach, mice positive/examined” value ([1]; D1, Non-perfused) was 3/3 and the “CPMV RNA detected in bone marrow, mice positive/examined” value ([1]; D1, Perfused) was 3/3. The “CPMV RNA detected in brain, mice positive/examined” value ([1]; D1, Perfused) was 3/3, the “CPMV RNA detected in duodenum, mice positive/examined” value ([1]; D1, Perfused) was 2/3 and the “CPMV RNA detected in ileum, mice positive/examined” value ([1]; D1, Perfused) was 3/3. The “CPMV RNA detected in jejunum, mice positive/examined” value ([1]; D1, Perfused) was 3/3, the “CPMV RNA detected in kidney, mice positive/examined” value ([1]; D1, Perfused) was 3/3 and the “CPMV RNA detected in liver, mice positive/examined” value ([1]; D1, Perfused) was 3/3. The “CPMV RNA detected in lung, mice positive/examined” value ([1]; D1, Perfused) was 3/3, the “CPMV RNA detected in spleen, mice positive/examined” value ([1]; D1, Perfused) was 3/3 and the “CPMV RNA detected in stomach, mice positive/examined” value ([1]; D1, Perfused) was 3/3. For the same substance, the “CPMV RNA detected in bone marrow, mice positive/examined” value ([1]; D2, Non-perfused) was 3/3, the “CPMV RNA detected in brain, mice positive/examined” value ([1]; D2, Non-perfused) was 3/3 and the “CPMV RNA detected in duodenum, mice positive/examined” value ([1]; D2, Non-perfused) was 3/3. For the same substance, the “CPMV RNA detected in ileum, mice positive/examined” value ([1]; D2, Non-perfused) was 3/3, the “CPMV RNA detected in jejunum, mice positive/examined” value ([1]; D2, Non-perfused) was 3/3 and the “CPMV RNA detected in kidney, mice positive/examined” value ([1]; D2, Non-perfused) was 3/3. For the same substance, the “CPMV RNA detected in liver, mice positive/examined” value ([1]; D2, Non-perfused) was 3/3, the “CPMV RNA detected in lung, mice positive/examined” value ([1]; D2, Non-perfused) was 3/3 and the “CPMV RNA detected in spleen, mice positive/examined” value ([1]; D2, Non-perfused) was 3/3. For the same substance, the “CPMV RNA detected in stomach, mice positive/examined” value ([1]; D2, Non-perfused) was 3/3, the “CPMV RNA detected in bone marrow, mice positive/examined” value ([1]; D2, Perfused) was 3/3 and the “CPMV RNA detected in brain, mice positive/examined” value ([1]; D2, Perfused) was 2/3. For the same substance, the “CPMV RNA detected in duodenum, mice positive/examined” value ([1]; D2, Perfused) was 3/3, the “CPMV RNA detected in ileum, mice positive/examined” value ([1]; D2, Perfused) was 3/3 and the “CPMV RNA detected in jejunum, mice positive/examined” value ([1]; D2, Perfused) was 3/3. For the same substance, the “CPMV RNA detected in kidney, mice positive/examined” value ([1]; D2, Perfused) was 3/3, the “CPMV RNA detected in liver, mice positive/examined” value ([1]; D2, Perfused) was 3/3 and the “CPMV RNA detected in lung, mice positive/examined” value ([1]; D2, Perfused) was 3/3. The “CPMV RNA detected in spleen, mice positive/examined” value ([1]; D2, Perfused) was 3/3, the “CPMV RNA detected in stomach, mice positive/examined” value ([1]; D2, Perfused) was 3/3 and the “CPMV RNA detected in bone marrow, mice positive/examined” value ([1]; D3, Non-perfused) was 3/3. The “CPMV RNA detected in brain, mice positive/examined” value ([1]; D3, Non-perfused) was 3/3, the “CPMV RNA detected in duodenum, mice positive/examined” value ([1]; D3, Non-perfused) was 2/3 and the “CPMV RNA detected in ileum, mice positive/examined” value ([1]; D3, Non-perfused) was 3/3. For the same substance, the “CPMV RNA detected in jejunum, mice positive/examined” value ([1]; D3, Non-perfused) was 3/3, the “CPMV RNA detected in kidney, mice positive/examined” value ([1]; D3, Non-perfused) was 3/3 and the “CPMV RNA detected in liver, mice positive/examined” value ([1]; D3, Non-perfused) was 3/3. For the same substance, the “CPMV RNA detected in lung, mice positive/examined” value ([1]; D3, Non-perfused) was 3/3, the “CPMV RNA detected in spleen, mice positive/examined” value ([1]; D3, Non-perfused) was 3/3 and the “CPMV RNA detected in stomach, mice positive/examined” value ([1]; D3, Non-perfused) was 1/3. For the same substance, the “CPMV RNA detected in bone marrow, mice positive/examined” value ([1]; D3, Perfused) was 3/3, the “CPMV RNA detected in brain, mice positive/examined” value ([1]; D3, Perfused) was 3/3 and the “CPMV RNA detected in duodenum, mice positive/examined” value ([1]; D3, Perfused) was 3/3. For the same substance, the “CPMV RNA detected in ileum, mice positive/examined” value ([1]; D3, Perfused) was 3/3, the “CPMV RNA detected in jejunum, mice positive/examined” value ([1]; D3, Perfused) was 3/3 and the “CPMV RNA detected in kidney, mice positive/examined” value ([1]; D3, Perfused) was 3/3. For the same substance, the “CPMV RNA detected in liver, mice positive/examined” value ([1]; D3, Perfused) was 3/3, the “CPMV RNA detected in lung, mice positive/examined” value ([1]; D3, Perfused) was 3/3 and the “CPMV RNA detected in spleen, mice positive/examined” value ([1]; D3, Perfused) was 3/3. For the same substance, the “CPMV RNA detected in stomach, mice positive/examined” value ([1]; D3, Perfused) was 3/3, the “survival of lethal i.c. LCMV challenge” value (LCMV) was “one of six” and the “mice positive for CPMV RNA in kidney, duodenum, jejunum and brain” value [3] was 1 out of 3. For the same substance, the “mice positive for CPMV RNA in spleen, liver, lungs, stomach, ileum and bone marrow” value [3] was 2 out of 3, the “persistence of CPMV RNA in tissues” value (ingestion of infected leaves) was “did not persist in tissues past the first day” and the “non-specific binding to the cell surface” value [2] was “significant non-specifig binding”. For the same substance, the “symptoms on cowpea leaves from virus recovered from mouse liver and spleen” value (cowpea plants; PEG-precipitated tissue homogenates) was “No symptoms were observed”, the “inoculated amount required for a PCR signal” value (cowpea plants; control titration on cowpea) was 1 ng and the “inoculated amount required to observe symptoms” value (cowpea plants; control titration on cowpea) was 10 ng.
